Laboratory results published in ChEMBL document CHEMBL1201862, “PubChem BioAssay data set” (2004).
Where “and” joins values, the source holds several entries; their conditions need not be identical. Equal values may be shown once.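 Method: 48-hour compound exposure of cells in 96-well plates, five concentrations, linear interpolation of endpoints. GI50: concentration for 50% inhibition of growth.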 Calls of active or inactive are those of the source. Rule as the data show it: active = GI50 up to about 1.1 µM and inactive = higher.

Legend:
Test in all cases: inhibition of tumour cell growth, NCI panel, 48 h
CAKI-1 = test system: CAKI-1
SK-MEL-28 = test system: SK-MEL-28
NCI-H23 = test system: NCI-H23
KM12 = test system: KM12
NCI/ADR-RES = test system: NCI/ADR-RES
K562 = test system: K562
SN12C = test system: SN12C
786-0 = test system: 786-0
BT-549 = test system: BT-549
SW-620 = test system: SW-620
COLO 205 = test system: COLO 205
UACC-62 = test system: UACC-62
CCRF-CEM = test system: CCRF-CEM
NCI-H460 = test system: NCI-H460
A498 = test system: A498
M14 = test system: M14
HCT-116 = test system: HCT-116
SF-268 = test system: SF-268
NCI-H226 = test system: NCI-H226

Row | SMILES | GI50 (CAKI-1) | GI50 (SK-MEL-28) | GI50 (NCI-H23) | GI50 (KM12) | GI50 (NCI/ADR-RES) | GI50 (K562) | GI50 (SN12C) | GI50 (786-0) | GI50 (BT-549) | GI50 (SW-620) | GI50 (COLO 205) | GI50 (UACC-62) | GI50 (CCRF-CEM) | GI50 (NCI-H460) | GI50 (A498) | GI50 (M14) | GI50 (HCT-116) | GI50 (SF-268) | GI50 (NCI-H226)
1 | CC1OC(OC2C(CO)OC(O[C@H]3CC[C@@]4(C)C(=CC[C@H]5[C@@H]6C[C@@H]7O[C@](O)(CC[C@@H](C)COC8OC(CO)C(O)C(O)C8O)[C@@H](C)[C@@H]7[C@@]6(C)CC[C@@H]54)C3)C(OC3OC(C)C(O)C(O)C3O)C2O)C(O)C(O)C1O (some centres not stated) | 2.47 µM (inactive) | 2.46 µM (inactive) | 3.55 µM (inactive) | 2.24 µM (inactive) | 2.06 µM (inactive) | 5.07 µM (inactive) | 2.2 µM (inactive) | 2.07 µM (inactive) | 3.88 µM (inactive) | 1.45 µM (inactive) | 2.56 µM (inactive) | 2.52 µM (inactive) | 2.3 µM (inactive) | 1.88 µM (inactive) | > 100 µM (inactive) | 1.91 µM (inactive) | 2.08 µM (inactive) | 3.23 µM (inactive) | –
2 | CN(c1ccccc1)S(=O)(=O)c1ccc([N+](=O)[O-])cc1 | > 100 µM (inactive) | > 100 µM (inactive) | 83.4 µM (inactive) | 46.5 µM (inactive) | 95.1 µM (inactive) | – | > 100 µM (inactive) | > 100 µM (inactive) | > 100 µM (inactive) | > 100 µM (inactive) | > 100 µM (inactive) | – | – | > 100 µM (inactive) | – | 55.7 µM (inactive) | > 100 µM (inactive) | > 100 µM (inactive) | > 100 µM (inactive)
3 | Cc1nccn1S(=O)(=O)c1ccc(Br)cc1Br | 30 µM (inactive) | 48.9 µM (inactive) | 36.1 µM (inactive) | 27.7 µM (inactive) | 28.5 µM (inactive) | 29.1 µM (inactive) | 29.7 µM (inactive) | 45.7 µM (inactive) | 56.2 µM (inactive) | 28.5 µM (inactive) | 18.6 µM (inactive) | 33.6 µM (inactive) | 26.5 µM (inactive) | 38.4 µM (inactive) | 35.9 µM (inactive) | 16.9 µM (inactive) | 31.6 µM (inactive) | 37.2 µM (inactive) | –
4 | NC(CC(=O)OCc1ccccc1)C(=O)OCc1ccccc1 (configuration not stated) | 63.1 µM (inactive) | > 100 µM (inactive) | > 100 µM (inactive) | > 100 µM (inactive) | > 100 µM (inactive) | – | > 100 µM (inactive) | > 100 µM (inactive) | – | > 100 µM (inactive) | > 100 µM (inactive) | > 100 µM (inactive) | > 100 µM (inactive) | > 100 µM (inactive) | – | > 100 µM (inactive) | > 100 µM (inactive) | > 100 µM (inactive) | –
5 | COc1ccc(NC(=S)NN=C(C)c2cccc(C(C)=NNC(=S)Nc3ccc(OC)cc3)n2)cc1 | 11.4 µM (inactive) | > 100 µM (inactive) | 64 µM (inactive) | 6.44 µM (inactive) | 8.59 µM (inactive) | 31.3 µM (inactive) | > 100 µM (inactive) | 14.7 µM (inactive) | – | 64.7 µM (inactive) | 4.45 µM (inactive) | > 100 µM (inactive) | 3.33 µM (inactive) | 12.4 µM (inactive) | > 100 µM (inactive) | 11.2 µM (inactive) | 11.6 µM (inactive) | > 100 µM (inactive) | 47.9 µM (inactive)
6 | COc1ccc2c(c1)/C(=C\c1c(-c3ccccc3)nc3n1CCS3)C(=O)N2 | 4.99 µM (inactive) | 11.1 µM (inactive) | 11.5 µM (inactive) | 3.33 µM (inactive) | 4.5 µM (inactive) | 2.94 µM (inactive) | 12.4 µM (inactive) | 11.9 µM (inactive) | 9.51 µM (inactive) | 2.99 µM (inactive) | 3.27 µM (inactive) | 4.83 µM (inactive) | 4.1 µM (inactive) | 3.52 µM (inactive) | 5.05 µM (inactive) | 6.9 µM (inactive) | 5.01 µM (inactive) | 9.2 µM (inactive) | –
7 | CSc1c([S+](C)[O-])c2ccccc2n1C (configuration not stated) | > 100 µM (inactive) | > 100 µM (inactive) | > 100 µM (inactive) | > 100 µM (inactive) | > 100 µM (inactive) | > 100 µM (inactive) | > 100 µM (inactive) | > 100 µM (inactive) | – | > 100 µM (inactive) | > 100 µM (inactive) | > 100 µM (inactive) | > 100 µM (inactive) | > 100 µM (inactive) | > 100 µM (inactive) | > 100 µM (inactive) | > 100 µM (inactive) | > 100 µM (inactive) | > 100 µM (inactive)
8 | CC(=O)OC1OC(C2c3cccc(O)c3C(=O)c3c(O)cc(CO)cc32)C(O)C(O)C1O (configuration not stated) | 2.78 µM (inactive) and 2.23 µM (inactive) | 2.92 µM (inactive) | 3.08 µM (inactive) and 3.33 µM (inactive) | – | 3.88 µM (inactive) and 2.93 µM (inactive) | 3.16 µM (inactive) and 3 µM (inactive) | 7.11 µM (inactive) and 5.35 µM (inactive) | 4.18 µM (inactive) and 4.13 µM (inactive) | 4.66 µM (inactive) and 5.7 µM (inactive) | 3.66 µM (inactive) and 3.03 µM (inactive) | – | 4.22 µM (inactive) and 4.29 µM (inactive) | 3.04 µM (inactive) and 3.18 µM (inactive) | 3.43 µM (inactive) and 3.48 µM (inactive) | 6.34 µM (inactive) | 10.5 µM (inactive) and 9.42 µM (inactive) | 3.01 µM (inactive) and 2.92 µM (inactive) | 4.97 µM (inactive) and 5.77 µM (inactive) | –
9 | CCOP(=O)(OCC)C(Nc1ccc(Cl)cc1)c1ccc(F)cc1 (configuration not stated) | 22.3 µM (inactive) | 18.4 µM (inactive) | 16.3 µM (inactive) | 31 µM (inactive) | 22.8 µM (inactive) | 25.5 µM (inactive) | 18.4 µM (inactive) | 19.3 µM (inactive) | – | > 10 µM (inactive) | 29.4 µM (inactive) | 4.7 µM (inactive) | 29.5 µM (inactive) | 19.5 µM (inactive) | 18.5 µM (inactive) | 16.6 µM (inactive) | 19.2 µM (inactive) | 20.1 µM (inactive) | 25.8 µM (inactive)
10 | CCCCCCCCCCCCCCCCCC(=O)O[C@H](COC(=O)CCCCCCCCCCC)COC(=O)CCCCCCCCCCCCCCC | > 100 µM (inactive) | > 100 µM (inactive) | > 100 µM (inactive) | – | – | > 100 µM (inactive) | > 100 µM (inactive) | > 100 µM (inactive) | – | > 100 µM (inactive) | > 100 µM (inactive) | > 100 µM (inactive) | > 100 µM (inactive) | > 100 µM (inactive) | > 100 µM (inactive) | > 100 µM (inactive) | > 100 µM (inactive) | > 100 µM (inactive) | > 100 µM (inactive)
11 | COc1ccc(NC(=O)CC(=O)N2N=C(N(c3ccccc3)c3ccccc3)CC2c2ccccc2)cc1 (configuration not stated) | > 100 µM (inactive) | > 100 µM (inactive) | > 100 µM (inactive) | > 100 µM (inactive) | > 100 µM (inactive) | > 100 µM (inactive) | > 100 µM (inactive) | > 100 µM (inactive) | – | > 100 µM (inactive) | > 100 µM (inactive) | > 100 µM (inactive) | > 100 µM (inactive) | – | > 100 µM (inactive) | > 100 µM (inactive) | > 100 µM (inactive) | > 100 µM (inactive) | > 100 µM (inactive)
12 | CC(=O)COC(=O)CC(C)=O | > 100 µM (inactive) | > 100 µM (inactive) | > 100 µM (inactive) | > 100 µM (inactive) | – | > 100 µM (inactive) | > 100 µM (inactive) | > 100 µM (inactive) | – | > 100 µM (inactive) | > 100 µM (inactive) | > 100 µM (inactive) | > 100 µM (inactive) | > 100 µM (inactive) | – | > 100 µM (inactive) | > 100 µM (inactive) | > 100 µM (inactive) | > 100 µM (inactive)
13 | CC(=O)NC(C)(C)C1CC=C(C)/C(=N\O)C1 (configuration not stated) | – | > 100 µM (inactive) | > 100 µM (inactive) | > 100 µM (inactive) | – | > 100 µM (inactive) | > 100 µM (inactive) | > 100 µM (inactive) | > 100 µM (inactive) | > 100 µM (inactive) | > 100 µM (inactive) | > 100 µM (inactive) | > 100 µM (inactive) | > 100 µM (inactive) | – | > 100 µM (inactive) | > 100 µM (inactive) | > 100 µM (inactive) | –
14 | COC(=O)C1CCC(=O)N1C(c1ccc(OC)cc1)c1cc(OC)c(OC)c(OC)c1 (configuration not stated) | 0.313 µM (active) | > 100 µM (inactive) | 0.553 µM (active) | 0.146 µM (active) | 0.258 µM (active) | 0.256 µM (active) | 0.531 µM (active) | 0.507 µM (active) | – | 0.384 µM (active) | 0.292 µM (active) | 0.163 µM (active) | 0.311 µM (active) | 0.33 µM (active) | 0.705 µM (active) | 0.322 µM (active) | 0.324 µM (active) | 0.625 µM (active) | 0.324 µM (active)
15 | CCCCCCCCCCSC(=O)NC | 25.9 µM (inactive) | 26.3 µM (inactive) | 30.5 µM (inactive) | 35.2 µM (inactive) | – | 25.8 µM (inactive) | 25.7 µM (inactive) | 35.2 µM (inactive) | – | 39.6 µM (inactive) | 34.9 µM (inactive) | 35.5 µM (inactive) | 18.9 µM (inactive) | 33.3 µM (inactive) | 37.5 µM (inactive) | 22.4 µM (inactive) | – | 31.8 µM (inactive) | –
16 | COc1cc2c(cc1OC)[C@H]1C(COC(=O)Nc3ccccc3)CN1CC2 (some centres not stated) | > 100 µM (inactive) | > 100 µM (inactive) | > 100 µM (inactive) | > 100 µM (inactive) | – | > 100 µM (inactive) | > 100 µM (inactive) | > 100 µM (inactive) | – | > 100 µM (inactive) | > 100 µM (inactive) | > 100 µM (inactive) | > 100 µM (inactive) | > 100 µM (inactive) | 70.6 µM (inactive) | 53.8 µM (inactive) | > 100 µM (inactive) | > 100 µM (inactive) | –
